According to US11661397B2, “1,4-disubstituted imidazole derivative” (Sumitomo Pharma Co., Ltd., priority 2015, dated 2023):

What was measured:
HCT-116 cells [1] = assay: Inhibition of sphere-forming ability of cancer cells (Test Example 1); format: cell-based; details: Homo sapiens, 96 h; HCT-116 spheres, non-adherent, serum-free, 4 days, CellTiter-Glo; read-out: Sphere IC50 value (concentration for 50% inhibition of cell proliferation)
Protocol: (§1) HCT-116 cells were available from the American Type Culture Collection (ATCC). HCT-116 cells were cultured at 37° C. and 5% CO2 using the McCoy's 5a medium containing 10% fetal bovine serum (FBS) and 1% penicillin/streptomycin. […] The test compounds were added into each well to adjust the final concentration of DMSO to 0.1%, and the cells were cultured for 4 days.

HCT-116 cells [2] = assay: Test for inhibiting sphere-forming ability of cancer cells in the presence of BSA (Test Example 2); format: cell-based; details: Homo sapiens, 96 h; HCT-116 spheres, 5% bovine serum albumin (BSA), 4 days, CellTiter-Glo; read-out: Sphere IC50 value (concentration for 50% inhibition of cell proliferation)
Protocol: as §1

| Compound | IC50 (HCT-116 cells [1]) [µM] | IC50 (HCT-116 cells [2]) [µM] |
| --- | --- | --- |
| O=C(Nc1ccc2nc(CO)ccc2c1)c1cn(Cc2cc(F)c(F)c(F)c2)cn1 [Example 23, N-[2-(hydroxymethyl)quinolin-6-yl]-1-(3,4,5-trifluorobenzyl)-1H-imidazole-4-carboxamide] | 0.079 | 0.084 |
| NCc1ccc(C(=O)Nc2cn(Cc3cccc(C(F)(F)F)c3)cn2)cn1 [Example 24, 6-(Aminomethyl)-N-{1-[3-(trifluoromethyl)benzyl]-1H-imidazol-4-yl}nicotinamide ditrifluoroacetate] | 0.061 | 0.696 |
| CC(=O)NCc1ccc(C(=O)Nc2cn(Cc3cccc(C(F)(F)F)c3)cn2)cn1 [Example 25, 6-[(Acetylamino)methyl]-N-{1-[3-(trifluoromethyl)benzyl]-1H-imidazol-4-yl}nicotinamide] | 4.48 | 4.97 |
| O=C(Nc1cn(Cc2cccc(C(F)(F)F)c2)cn1)c1cnc(C(O)CO)c(F)c1 (stereo not drawn) [Example 27] | 0.695 | 6.23 |
| O=C(Nc1cn(Cc2cccc(C(F)(F)F)c2)cn1)c1cnc(C(O)CO)c(Cl)c1 (stereo not drawn) [Example 28] | 0.847 | 4.58 |
| O=C(Nc1cn(Cc2cccc(C(F)(F)F)c2)cn1)c1cnc(C(O)CO)c(Br)c1 (stereo not drawn) [Example 29] | 0.633 | 3.5 |
| O=C(Nc1cn(Cc2cccc(C(F)(F)F)c2)cn1)c1cnc(CO)c(F)c1 [Example 30, 5-Fluoro-6-(hydroxymethyl)-N-{1-[3-(trifluoromethyl)benzyl]-1H-imidazol-4-yl}nicotinamide] | 0.069 | 0.563 |
| Cc1cc(CO)ncc1C(=O)Nc1cn(Cc2cccc(C(F)(F)F)c2)cn1 [Example 35] | 3.76 | 6.11 |
| O=C(Nc1cn(Cc2cccc(C(F)(F)F)c2)cn1)c1cnc(CO)cc1Cl [Example 36] | 0.074 | 0.481 |
| O=C(Nc1cn(Cc2cccc(C(F)(F)F)c2)cn1)c1coc(CO)n1 [Example 37] | 0.238 | 0.451 |
| O=C(Nc1cn(Cc2cc(F)c(F)c(F)c2)cn1)c1cnc(CO)c(Br)c1 [Example 38] | 0.061 | 0.081 |
| O=C(Nc1cn(Cc2cccc(C(F)(F)F)c2)cn1)c1cnc(CO)s1 [Example 40, 2-(Hydroxymethyl)-N-{1-[3-(trifluoromethyl)benzyl]-1H-imidazol-4-yl}-1,3-thiazole-5-carboxamide] | 0.122 | 0.629 |
| C=Cc1cc(C(=O)Nc2cn(Cc3cccc(C(F)(F)F)c3)cn2)cnc1CO [Example 43, 5-Ethenyl-6-(hydroxymethyl)-N-{1-[3-(trifluoromethyl)benzyl]-1H-imidazol-4-yl}nicotinamide] | 5.6 | 6.51 |
| CCc1cc(C(=O)Nc2cn(Cc3cccc(C(F)(F)F)c3)cn2)cnc1CO [Example 44, 5-Ethyl-6-(hydroxymethyl)-N-{1-[3-(trifluoromethyl)benzyl]-1H-imidazol-4-yl}nicotinamide] | 0.758 | 5.11 |
| Cc1sc(C(=O)Nc2cn(Cc3cc(F)c(F)c(F)c3)cn2)nc1CO [Example 47, 4-(Hydroxymethyl)-5-methyl-N-[1-(3,4,5-trifluorobenzyl)-1H-imidazol-4-yl]-1,3-thiazole-2-carboxamide] | 0.669 | 5.46 |
| Cc1nc(C(=O)Nc2cn(Cc3cc(F)c(F)c(F)c3)cn2)sc1CO [Example 48, 5-(Hydroxymethyl)-4-methyl-N-[1-(3,4,5-trifluorobenzyl)-1H-imidazol-4-yl]-1,3-thiazole-2-carboxamide] | 0.095 | 0.571 |
| O=C(/C=C/c1ccc(CO)nc1)Nc1cn(Cc2cccc(C(F)(F)F)c2)cn1 [Example 51] | 0.07 | 0.63 |
| CC(C)(O)c1ccc(/C=C/C(=O)Nc2cn(Cc3cccc(C(F)(F)F)c3)cn2)cn1 [Example 53, (2E)-3-[6-(2-Hydroxypropan-2-yl)pyridin-3-yl]-N-{1-[3-(trifluoromethyl)benzyl]-1H-imidazol-4-yl}prop-2-enamide] | 7.2 | < 10 |
| O=C(Nc1cn(Cc2ccc(F)c(F)c2)cn1)c1cnc(CO)c(C(F)F)c1 [Example 54, N-[1-(3,4-difluorobenzyl)-1H-imidazol-4-yl]-5-(difluoromethyl)-6-(hydroxymethyl)nicotinamide] | 0.148 | 0.603 |
| O=C(Nc1cn(Cc2cccc(Cl)c2)cn1)c1cnc(CO)c(C(F)F)c1 [Example 55, N-[1-(3-chlorobenzyl)-1H-imidazol-4-yl]-5-(difluoromethyl)-6-(hydroxymethyl)nicotinamide] | 0.075 | 0.619 |
| O=C(Nc1cn(Cc2cccc(Br)c2)cn1)c1cnc(CO)c(C(F)F)c1 [Example 58, N-[1-(3-bromobenzyl)-1H-imidazol-4-yl]-5-(difluoromethyl)-6-(hydroxymethyl)nicotinamide] | 0.07 | 0.08 |
| Cc1cccc(Cn2cnc(NC(=O)c3cnc(CO)c(C(F)F)c3)c2)c1 [Example 63, 5-(difluoromethyl)-6-(hydroxymethyl)-N-[1-(3-methylbenzyl)-1H-imidazol-4-yl]nicotinamide] | 0.69 | 0.6 |
| COc1cc(Cn2cnc(NC(=O)c3cnc(CO)c(C(F)F)c3)c2)cc(C(F)(F)F)c1 [Example 65, 5-(difluoromethyl)-6-(hydroxymethyl)-N-{1-[3-methoxy-5-(trifluoromethyl)benzyl]-1H-imidazol-4-yl}nicotinamide] | 0.63 | 0.66 |
| O=C(Nc1cn(Cc2ccc(Cl)c(F)c2)cn1)c1cnc(CO)c(C(F)F)c1 [Example 66, N-[1-(4-chloro-3-fluorobenzyl)-1H-imidazol-4-yl]-5-(difluoromethyl)-6-(hydroxymethyl)nicotinamide] | 0.07 | 0.06 |
| O=C(Nc1cn(Cc2ccc(C(F)(F)F)c(F)c2)cn1)c1cnc(CO)c(C(F)F)c1 [Example 74, 5-(difluoromethyl)-N-{1-[3-fluoro-4-(trifluoromethyl)benzyl]-1H-imidazol-4-yl}-6-(hydroxymethyl)nicotinamide] | 0.38 | 0.67 |

Stronger by IC50 (HCT-116 cells [1]), values ahead:

| IC50 (HCT-116 cells [1]) [µM] | IC50 (HCT-116 cells [2]) [µM] | Compound |
| --- | --- | --- |
| < 0.01 | < 0.01 | O=C(Nc1cn(Cc2cccc(C(F)(F)F)c2)cn1)c1cnc(CO)c(Cl)c1 [Example 31] |
| < 0.01 | 0.068 | O=C(Nc1cn(Cc2cccc(C(F)(F)F)c2)cn1)c1cnc(CO)c(Br)c1 [Example 32] |
| 0.051 | 0.059 | O=C(Nc1cn(Cc2cc(F)c(F)c(F)c2)cn1)c1cnc(CO)c(Cl)c1 [Example 41, 5-Chloro-6-(hydroxymethyl)-N-[1-(3,4,5-trifluorobenzyl)-1H-imidazol-4-yl]nicotinamide] |
| < 0.01 | 0.06 | Cc1cc(C(=O)Nc2cn(Cc3cccc(C(F)(F)F)c3)cn2)cnc1CO [Example 42, 6-(Hydroxymethyl)-5-methyl-N-{1-[3-(trifluoromethyl)benzyl]-1H-imidazol-4-yl}nicotinamide] |
| 0.05 | 0.41 | O=C(/C=C/c1cnc(CO)c(Cl)c1)Nc1cn(Cc2cccc(C(F)(F)F)c2)cn1 [Example 52] |
| < 0.01 | 0.05 | O=C(Nc1cn(Cc2ccc(F)c(C(F)(F)F)c2)cn1)c1cnc(CO)c(C(F)F)c1 [Example 57, 5-(difluoromethyl)-N-{1-[4-fluoro-3-(trifluoromethyl)benzyl]-1H-imidazol-4-yl}-6-(hydroxymethyl)nicotinamide] |
| 0.03 | 0.06 | O=C(Nc1cn(Cc2cc(F)cc(C(F)(F)F)c2)cn1)c1cnc(CO)c(C(F)F)c1 [Example 60, 5-(difluoromethyl)-N-{1-[3-fluoro-5-(trifluoromethyl)benzyl]-1H-imidazol-4-yl}-6-(hydroxymethyl)nicotinamide] |
| < 0.01 | 0.03 | O=C(Nc1cn(Cc2ccc(F)c(Cl)c2)cn1)c1cnc(CO)c(C(F)F)c1 [Example 61, N-[1-(3-chloro-4-fluorobenzyl)-1H-imidazol-4-yl]-5-(difluoromethyl)-6-(hydroxymethyl)nicotinamide] |
| < 0.01 | 0.05 | O=C(Nc1cn(Cc2ccc(F)c(Br)c2)cn1)c1cnc(CO)c(C(F)F)c1 [Example 62, N-[1-(3-bromo-4-fluorobenzyl)-1H-imidazol-4-yl]-5-(difluoromethyl)-6-(hydroxymethyl)nicotinamide] |
| 0.04 | 0.07 | O=C(Nc1cn(Cc2ccc(Br)c(F)c2)cn1)c1cnc(CO)c(C(F)F)c1 [Example 67, N-[1-(4-bromo-3-fluorobenzyl)-1H-imidazol-4-yl]-5-(difluoromethyl)-6-(hydroxymethyl)nicotinamide] |
| < 0.01 | 0.06 | Cc1ccc(Cn2cnc(NC(=O)c3cnc(CO)c(C(F)F)c3)c2)cc1C(F)(F)F [Example 70, 5-(difluoromethyl)-6-(hydroxymethyl)-N-{1-[4-methyl-3-(trifluoromethyl)benzyl]-1H-imidazol-4-yl}nicotinamide] |
| < 0.01 | 0.06 | O=C(Nc1cn(Cc2ccc(Cl)c(Cl)c2)cn1)c1cnc(CO)c(C(F)F)c1 [Example 71, N-[1-(3,4-dichlorobenzyl)-1H-imidazol-4-yl]-5-(difluoromethyl)-6-(hydroxymethyl)nicotinamide] |
| < 0.01 | 0.05 | O=C(Nc1cn(Cc2cc(Cl)cc(Cl)c2)cn1)c1cnc(CO)c(C(F)F)c1 [Example 75, N-[1-(3,5-dichlorobenzyl)-1H-imidazol-4-yl]-5-(difluoromethyl)-6-(hydroxymethyl)nicotinamide] |
| 0.05 | 0.06 | O=C(Nc1cn(Cc2cc(F)cc(Br)c2)cn1)c1cnc(CO)c(C(F)F)c1 [Example 76, N-[1-(3-bromo-5-fluorobenzyl)-1H-imidazol-4-yl]-5-(difluoromethyl)-6-(hydroxymethyl)nicotinamide] |
